IC50 data for 35 compounds are collected here from US8906852B2 (MethylGene Inc., priority 2010, dated 2014).

Counter-ions that a name gives are not always drawn.

By IC50 is commonly meant the midpoint of a concentration-inhibition curve. Read a high IC50 as a need for much substance.

This test deals with T1, VEGFR/KDR (Homo sapiens, UniProt P35968).
T1 construct: made in house; host or cells: Sf9 cells (Spodoptera frugiperda), baculovirus
T1 sequence (P35968 806-1356): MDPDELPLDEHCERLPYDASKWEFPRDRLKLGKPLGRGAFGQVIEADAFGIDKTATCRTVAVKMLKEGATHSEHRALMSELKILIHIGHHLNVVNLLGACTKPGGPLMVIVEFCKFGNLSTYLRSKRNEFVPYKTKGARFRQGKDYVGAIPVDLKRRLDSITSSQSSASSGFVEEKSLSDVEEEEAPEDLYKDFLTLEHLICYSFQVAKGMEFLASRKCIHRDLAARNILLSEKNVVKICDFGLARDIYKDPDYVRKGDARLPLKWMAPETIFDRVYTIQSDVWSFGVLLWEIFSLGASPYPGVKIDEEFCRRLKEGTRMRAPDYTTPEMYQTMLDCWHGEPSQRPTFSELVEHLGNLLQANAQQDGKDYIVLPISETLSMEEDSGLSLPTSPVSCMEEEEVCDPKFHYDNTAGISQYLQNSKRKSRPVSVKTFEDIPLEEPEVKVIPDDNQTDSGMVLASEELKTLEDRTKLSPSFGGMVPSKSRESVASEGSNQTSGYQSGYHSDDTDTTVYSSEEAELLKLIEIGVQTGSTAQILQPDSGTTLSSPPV
Briefly: VEGFR/KDR kinase inhibition, DELFIA assay. Format: biochemical. The settings on record: ATP 0.6 uM (2x Km), enzyme 5 nM. The method, boiled down:
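Enzyme (5 nM) pre-incubated 4 min on ice with inhibitor and Mg-ATP (0.6 uM, 2× Km), then reacted 10-30 min at 30° C on immobilized poly(Glu4,Tyr). EDTA-quenched phosphotyrosine detected with Europium-labeled antibody by time-resolved fluorescence; IC50 from concentration series.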
Take `COCCOCCOCC(=O)N1CCN(Cc2ccc(-c3cc4nccc(Oc5ccc(NC(=O)NC6CC6)cc5F)c4s3)nc2)CC1` [Compound 588, 1-Cyclopropyl-3-(3-fluoro-4-(2-(5-((4-(2-(2-(2-methoxyethoxy)ethoxy)acetyl)piperazin-1-yl)methyl)pyridin-2-yl)thieno[3,2-b]pyridin-7-yloxy)phenyl)urea]: the half-maximal inhibitory concentration (IC50) is below 50 nM.
For `Cn1c(C(=O)NCCCN2CCOCC2)cnc1-c1cc2nccc(Oc3ccc(NC(=O)NC4CC4)cc3F)c2s1` [Compound 224] the value was below 50 nM; for `CN(C(=O)CO)C1CCN(Cc2ccc(-c3cc4nccc(Oc5ccc(NC(=O)NC6CC6)cc5F)c4s3)nc2)CC1` [Compound 413], below 50 nM; for `CC(=O)N1CCN(Cc2ccc(-c3cc4nccc(Oc5ccc(NC(=O)NC6CC6)cc5F)c4s3)nc2)CC1` [Compound 66, 1-(4-(2-(5-((4-acetylpiperazin-1-yl)methyl)pyridin-2-yl)thieno[3,2-b]pyridin-7-yloxy)-3-fluorophenyl)-3-cyclopropylurea], below 50 nM.
Next, `Cn1c(C(=O)NCCN2CCOCC2)cnc1-c1cc2nccc(Oc3ccc(NC(=O)NC4CC4)cc3F)c2s1` [Compound 217, 2-(7-(4-(3-cyclopropylureido)-2-fluorophenoxy)thieno[3,2-b]pyridin-2-yl)-1-methyl-N-(2-morpholinoethyl)-1H-imidazole-5-carboxamide]: below 50 nM; `O=C(Nc1ccc(Oc2ccnc3cc(-c4ccc(CN5CC[C@H](O)C5=O)cn4)sc23)c(F)c1)NC1CC1` [Compound 110, (S)-1-cyclopropyl-3-(3-fluoro-4-(2-(5-((3-hydroxy-2-oxopyrrolidin-1-yl)methyl)pyridin-2-yl)thieno[3,2-b]pyridin-7-yloxy)phenyl)urea]: below 50 nM; `NC(=O)CCN1CCN(Cc2ccc(-c3cc4nccc(Oc5ccc(NC(=O)NC6CC6)cc5F)c4s3)nc2)CC1` [Compound 82, 3-(4-((6-(7-(4-(3-cyclopropylureido)-2-fIuorophenoxy)-thieno[3,2-b]pyridin-2-yl)pyridin-3-yl)methyl)piperazin-l-yl)propanamide]: below 50 nM.
The compound `O=C(Nc1ccc(Oc2ccnc3cc(-c4ccc(CN5CCCC5=O)nc4)sc23)c(F)c1)NC1CC1` [Compound 283, 1-cyclopropyl-3-(3-fluoro-4-(2-(6-((2-oxopyrrolidin-1-yl)methyl)pyridin-3-yl)thieno[3,2-b]pyridin-7-yloxy)phenyl)urea] came in with an IC50 below 50 nM.
Next, `CC(C)(C)OC(=O)NC1CCN(C(=O)Cn2cc(-c3cc4nccc(Oc5ccc(NC(=O)NC6CC6)cc5F)c4s3)nn2)CC1` [Compound 387]: below 50 nM; `O=C(O)CCCCCCCN1CCN(Cc2ccc(-c3cc4nccc(Oc5ccc(NC(=O)NC6CC6)cc5F)c4s3)nc2)CC1` [Compound 522, 8-(4-((6-(7-(4-(3-cyclopropylureido)-2-fluorophenoxy)thieno[3,2-b]pyridin-2-yl)pyridin-3-yl)methyl)piperazin-1-yl)octanoic acid]: below 50 nM; `O=C(O)CCCCCCC(=O)N1CCN(Cc2ccc(-c3cc4nccc(Oc5ccc(NC(=O)NC6CC6)cc5F)c4s3)nc2)CC1` [Compound 544]: below 50 nM.
Compound `CNC(=O)N1CCN(Cc2ccc(-c3cc4nccc(Oc5ccc(NC(=O)NC6CC6)cc5F)c4s3)nc2)CC1` [Compound 552] came in with an IC50 below 50 nM.
Next, `O=C(O)CCCCCCN1CCN(Cc2ccc(-c3cc4nccc(Oc5ccc(NC(=O)NC6CC6)cc5F)c4s3)nc2)CC1` [Compound 521, 7-(4-((6-(7-(4-(3-cyclopropylureido)-2-fluorophenoxy)thieno[3,2-b]pyridin-2-yl)pyridin-3-yl)methyl)piperazin-1-yl)heptanoic acid]: below 50 nM.
The compound `CCOC(=O)CC(C)N1CCN(Cc2ccc(-c3cc4nccc(Oc5ccc(NC(=O)NC6CC6)cc5F)c4s3)nc2)CC1` (centres unmarked) [Compound 515, Ethyl 3-(4-((6-(7-(4-(3-cyclopropylureido)-2-fluorophenoxy)thieno[3,2-b]pyridin-2-yl)pyridin-3-yl)methyl)piperazin-1-yl)butanoate] returned an IC50 below 50 nM.
Next, `COCCOCC(=O)N1CC=C(c2cc3nccc(Oc4ccc(NC(=O)NC5CC5)cc4F)c3s2)CC1` [Compound 274]: below 50 nM.
Next, `O=C(Nc1ccc(Oc2ccnc3cc(-c4cnn(CCOC(=O)NC5CC5)c4)sc23)c(F)c1)NC1CC1` [Compound 157, 2-(4-(7-(4-(3-cyclopropylureido)-2-fluorophenoxy)thieno[3,2-b]pyridin-2-yl)-1H-pyrazol-1-yl)ethyl cyclopropylcarbamate]: below 50 nM; `CC(C)(CN1CCN(Cc2ccc(-c3cc4nccc(Oc5ccc(NC(=O)NC6CC6)cc5F)c4s3)nc2)CC1)C(=O)O` [Compound 575]: below 50 nM; `CN1CCN(CCNC(=O)c2ccc(-c3cc4nccc(Oc5ccc(NC(=O)NC6CC6)cc5F)c4s3)nc2)CC1` [Compound 233, 6-(7-(4-(3-cyclopropylureido)-2-fluorophenoxy)thieno[3,2-b]pyridin-2-yl)-N-(2-(4-methylpiperazin-1-yl)ethyl)nicotinamide formate salt]: below 50 nM.
Next, `CC(C)(C)OC(=O)N1CCN(C(=O)Cn2cc(-c3cc4nccc(Oc5ccc(NC(=O)NC6CC6)cc5F)c4s3)nn2)CC1` [Compound 388]: below 50 nM.
`CC(C)NC(=O)Nc1ccc(Oc2ccnc3cc(-c4ccc(CN5CCCOC5=O)cn4)sc23)c(F)c1` [Compound 201, 1-(3-fluoro-4-(2-(5-((2-oxo-1,3-oxazinan-3-yl)methyl)pyridin-2-yl)thieno[3,2-b]pyridin-7-yloxy)phenyl)-3-isopropylurea] displayed an IC50 below 50 nM.
The compound `CC(=O)N[C@H]1CCN(C(=O)c2cc3nccc(Oc4ccc(NC(=O)NC5CC5)cc4F)c3s2)C1` [Compound 452] had an IC50 below 50 nM.
`O=C(Nc1ccc(Oc2ccnc3cc(-c4ccc(CN5CCN(Cc6cccnc6)CC5)cn4)sc23)c(F)c1)NC1CC1` [Compound 324, 1-cyclopropyl-3-(3-fluoro-4-(2-(5-((4-(pyridin-3-ylmethyl)piperazin-1-yl)methyl)pyridin-2-yl)thieno[3,2-b]pyridin-7-yloxy)phenyl)urea]: the IC50 is below 50 nM.
For `CS(=O)(=O)N1CC=C(c2cc3nccc(Oc4ccc(NC(=O)NC5CC5)cc4F)c3s2)CC1` [Compound 275, 1-cyclopropyl-3-(3-fluoro-4-(2-(1-(methylsulfonyl)-1,2,3,6-tetrahydropyridin-4-yl)thieno[3,2-b]pyridin-7-yloxy)phenyl)urea] the value was below 50 nM.
For `CN(C)CCNC(=O)C1CCCN(Cc2ccc(-c3cc4nccc(Oc5ccc(NC(=O)NC6CC6)cc5F)c4s3)nc2)C1` (centres unmarked) [Compound 491, 1-((6-(7-(4-(3-cyclopropylureido)-2-fluorophenoxy)thieno[3,2-b]pyridin-2-yl)pyridin-3-yl)methyl)-N-(2-(dimethylamino)ethyl)piperidine-3-carboxamide] the value was below 50 nM; for `COC(=O)CCN1CCN(Cc2ccc(-c3cc4nccc(Oc5ccc(NC(=O)NC6CC6)cc5F)c4s3)nc2)CC1` [Compound 507, methyl 3-(4-((6-(7-(4-(3-cyclopropylureido)-2-fluorophenoxy)thieno[3,2-b]pyridin-2-yl)pyridin-3-yl)methyl)piperazin-1-yl)propanoate], below 50 nM; for `O=C(Nc1ccc(Oc2ccnc3cc(-c4ccc(CN5CCOCCOCCOCC5)cn4)sc23)c(F)c1)NC1CC1` [Compound 532], below 50 nM.
Take `CCOC(=O)C1CCCN(Cc2ccc(-c3cc4nccc(Oc5ccc(NC(=O)NC6CC6)cc5F)c4s3)nc2)C1` (centres unmarked) [Compound 475, ethyl 1-((6-(7-(4-(3-cyclopropylureido)-2-fluorophenoxy)thieno[3,2-b]pyridin-2-yl)pyridino-yl)methyl)piperidine-3-carboxylate]: the IC50 was below 50 nM.
For `COCCNCc1ccc(-c2cc3nccc(Oc4ccc(NC(=O)NC5CC5)cc4F)c3s2)cc1` [Compound 113] the value was below 50 nM; for `COC(=O)[C@@H]1CCCN1Cc1ccc(-c2cc3nccc(Oc4ccc(NC(=O)NC5CC5)cc4F)c3s2)nc1` [Compound 476], below 50 nM; for `O=C(Nc1ccc(Oc2ccnc3cc(-c4ccc(CNc5cc[nH]n5)cn4)sc23)c(F)c1)NC1CC1` [Compound 332, 1-(4-(2-(5-((1H-Pyrazol-3-ylamino)methyl)pyridin-2-yl)thieno[3,2-b]pyridin-7-yloxy)-3-fluorophenyl)-3-cyclopropylurea], below 50 nM.
The compound `CN(CCO)C(=O)[C@@H]1CCCN1Cc1ccc(-c2cc3nccc(Oc4ccc(NC(=O)NC5CC5)cc4F)c3s2)nc1` [Compound 486, (S)-1-((6-(7-(4-(3-cyclopropylureido)-2-fluorophenoxy)thieno[3,2-b]pyridin-2-yl)pyridin-3-yl)methyl)-N-(2-hydroxyethyl)-N-methylpyrrolidine-2-carboxamide] registered an IC50 below 50 nM.
As to `CNC(=O)CCN1CCN(Cc2ccc(-c3cc4nccc(Oc5ccc(NC(=O)NC6CC6)cc5F)c4s3)nc2)CC1` [Compound 81, 3-(4-((6-(7-(4-(3-cyclopropylureido)-2-fluorophenoxy)thieno[3,2-b]pyridin-2-yl)pyridin-3-yl)methyl)piperazin-1-yl)-N-methylpropanamide], the IC50 was below 50 nM.
Regarding `O=C(Nc1ccc(Oc2ccnc3cc(-c4cn(CCN5CCOCC5)nn4)sc23)c(F)c1)NC1CC1` [Compound 364], the IC50 was below 50 nM.
With `CN1CCN(C(=O)C2CCN(Cc3ccc(-c4cc5nccc(Oc6ccc(NC(=O)NC7CC7)cc6F)c5s4)nc3)CC2)CC1` [Compound 482, 1-cyclopropyl-3-(3-fluoro-4-(2-(5-((4-(4-methylpiperazine-1-carbonyl)piperidin-1-yl)methyl)pyridin-2-yl)thieno[3,2-b]pyridin-7-yloxy)phenyl)urea], the IC50 is below 50 nM.
For `CCN(CC)CCn1cc(-c2cc3nccc(Oc4ccc(NC(=O)NC5CC5)cc4F)c3s2)nn1` [Compound 363] the value was below 50 nM.
